Like-named read-outs stand apart in the source and are kept apart here. Numbered stars: 1 amine (or outer) side, 2 acyl side, 3 side chain; on linkers, the order of the positions; unused ones are H or OH. Square brackets hold non-standard residues; d marks the D form. Side chains are listed from the residue outwards. Peptide text beside a SMILES is read from it. * marks the point of attachment. C18 diacid = O=C(O)CCCCCCCCCCCCCCCCC(=O)*; γGlu = O=C(O)[C@H](CCC(=O)[*:2])N[*:1]; Aib = CC(C)(N)C(=O)O
What was measured:
[1] = Body weight in Phase 1b trial; format: in vivo, human; settings: four once weekly s.c. doses, 1.0 mg to 3.5/6.0 mg, healthy subjects, FIG. 3
[2] = Plasma half-life in single ascending dose Phase 1a trial (LC-MS/MS); format: in vivo; settings: human
Description: Blood sampling for determining Cpd 18 plasma concentrations were performed during the phase la study (outlined in Example 2) at scheduled timepoints. Concentration of Cpd 18 in plasma was measured using a validated LC-MS/MS assay. Pharmacokinetic (PK) endpoints for Cpd 18 were derived from the individual concentration profiles (with hour as time unit). For PK analysis, Cpd 18 concentrations were supplied by the analytical laboratory in nmol/L. Mean measured concentrations per dose level are shown in […].
For determination of λz a linear regression was performed using the logarithm to plasma Cpd. 18 concentration as the response variable and at least three valid concentration measurements of the terminal end period after Cmax. (The exact number of data points depends on the best goodness-of-fit). Cmax is not included in the calculation for λz as this point may be affected by absorption still taking place from the injection site.
The terminal elimination half-life of the plasma Cpd. 18 profile (t½) was calculated by the following formula: […]

- half-life ([2]; sc, single s.c. dose 0.02 mg, healthy subjects, N 6, read-out: t1/2 Mean (converted)): 140 h
- half-life ([2]; sc, single s.c. dose 0.07 mg, healthy subjects, N 6, read-out: t1/2 Mean (converted)): 126 h
- half-life ([2]; sc, single s.c. dose 0.2 mg, healthy subjects, N 6, read-out: t1/2 Mean (converted)): 129 h
- half-life ([2]; sc, single s.c. dose 0.6 mg, healthy subjects, N 6, read-out: t1/2 Mean (converted)): 110 h
- half-life ([2]; sc, single s.c. dose 1.5 mg, healthy subjects, N 6, read-out: t1/2 Mean (converted)): 120 h
- half-life ([2]; sc, single s.c. dose 3 mg, healthy subjects, N 6, read-out: t1/2 Mean (converted)): 120 h
- half-life ([2]; sc, single s.c. dose 6 mg, healthy subjects, N 6, read-out: t1/2 Mean (converted)): 112 h
- half-life ([2]; sc, single s.c. dose 7.5 mg, healthy subjects, N 6, read-out: t1/2 Mean (converted)): 135 h
- half-life ([2]; subcutaneous, following a single dose, across dose groups, read-out: calculated mean half-life): 110 to 135 h
SMILES: CC[C@H](C)[C@H](NC(=O)[C@H](Cc1ccccc1)NC(=O)[C@H](CC(=O)O)NC(=O)[C@H](CCCNC(=N)N)NC(=O)[C@H](C)NC(=O)[C@H](C)NC(=O)[C@H](CCC(N)=O)NC(=O)[C@H](CCCCNC(=O)CC[C@H](NC(=O)CCCCCCCCCCCCCCCCC(=O)O)C(=O)O)NC(=O)[C@H](CC(=O)O)NC(=O)[C@H](CC(C)C)NC(=O)[C@@H](NC(=O)[C@@H](NC(=O)[C@H](C)NC(=O)[C@H](CC(C)C)NC(=O)[C@H](CCC(=O)O)NC(=O)[C@H](CO)NC(=O)[C@@H](NC(=O)[C@H](Cc1ccccc1)NC(=O)[C@H](CO)NC(=O)CNC(=O)[C@H](CCC(=O)O)NC(=O)C(C)(C)NC(=O)[C@@H](N)Cc1c[nH]cn1)[C@@H](C)O)[C@@H](C)O)[C@@H](C)CC)C(=O)N[C@@H](C)C(=O)N[C@@H](Cc1c[nH]c2ccccc12)C(=O)N[C@@H](CC(C)C)C(=O)N[C@H](C(=O)N[C@@H](CCC(N)=O)C(=O)N[C@@H](Cc1c[nH]cn1)C(=O)N[C@@H](CCCCN)C(=O)N[C@H](C(=O)N[C@H](C(=O)N[C@@H](CC(=O)O)C(=O)O)[C@@H](C)O)[C@@H](C)CC)[C@@H](C)CC [Compound 18] (H-H[Aib]EGSFTSELATILDK([γGlu-C18 diacid])QAARDFIAWLIQHKITD-OH)
- Body weight [1]: dose dependent reduction in body weight
